Reference: US11000033B2, “Ketone or oxime compound, and herbicide” (NISSAN CHEMICAL CORPORATION, priority 2014, dated 2021)

What was measured:
Assay type in all cases: in vivo
[1] = test system: Echinochloa oryzacola Vasing.; assay: Test Example 1: herbicidal activity, application before weed generation in submerged conditions (symbol A); details: application herbicide amount 320 g/ha
Procedure, shortened: (§1)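 Weeds are sown into submerged alluvial soil alongside transplanted 2.5-leaf rice, and the compound, as an emulsion diluted to a set rate, is applied onto the water before emergence. Rating on the 0–5 herbicidal-ratio scale follows 3 weeks of greenhouse growth at 25–30 °C.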

[2] = test system: Monochoria vaginalis; assay: Test Example 1: herbicidal activity, application before weed generation in submerged conditions (symbol C); details: application herbicide amount 320 g/ha
Procedure, shortened: as §1

[3] = test system: directly sowed rice plant; assay: Test Example 3: effect on crop by foliage application, Wagner pot (symbol b); details: application herbicide amount 320 g/ha; for b (directly sowed rice plant) effect on crop grade: Table 24
Procedure, shortened: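 Wagner pot (1/10000 are), alluvial soil, submerged 0.1–0.5 cm; sown E. crus-galli var. crus-galli, L. chinensis, C. difformis, rice; greenhouse 25–30 °C.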

[4] = test system: Digitaria ciliaris; assay: Test Example 4: herbicidal effect by soil treatment (symbol F)
Procedure, shortened: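 Seeds were sown in sterilized diluvial soil, covered with about 1.5 cm of soil, and the soil surface was sprayed with a water-diluted emulsion of the compound at a predetermined rate. Plants grew in a greenhouse at 25° C. to 30° C.; effects were scored visually 3 weeks after application.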

[5] = test system: soybean; assay: Test Example 4: effect on crop by soil treatment (symbol d); details: for d: soybean, effect grade on crop: 320 g/ha
Procedure, shortened: (§2)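 Crop seeds, among them rice, wheat, beet and rapeseed, were sown in sterilized diluvial soil and covered with about 1.5 cm of soil. Boxes were kept in a greenhouse at 25° C. to 30° C. for plant growth.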

[6] = test system: wheat; assay: Test Example 4: effect on crop by soil treatment (symbol e); details: for e: wheat, effect grade on crop: 320 g/ha
Procedure, shortened: as §2

[7] = test system: rapeseed; assay: Test Example 4: effect on crop by soil treatment (symbol g); details: for g: rapeseed, effect grade on crop: 320 g/ha
Procedure, shortened: as §2

[8] = test system: Echinochloa crus-galli var. crus-galli; assay: Test Example 5: herbicidal effect by foliage application, plastic box (symbol H); details: 320 g/ha, 3 weeks after application
Procedure, shortened: (§3)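 Visual herbicidal score, taken three weeks post-application, of seedlings sprayed on the foliage with water-diluted emulsion at a predetermined amount; plants were 14 days old, greenhouse-raised at 25° C. to 30° C.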

[9] = test system: Lolium multiflorum Lam.; assay: Test Example 5: herbicidal effect by foliage application, plastic box (symbol K); details: 320 g/ha, 3 weeks after application
Procedure, shortened: as §3

[10] = test system: Amaranthus retroflexus; assay: Test Example 5: herbicidal effect by foliage application, plastic box (symbol N); details: 320 g/ha, 3 weeks after application
Procedure, shortened: as §3

[11] = test system: Chenopodium album; assay: Test Example 5: herbicidal effect by foliage application, plastic box (symbol O); details: 320 g/ha, 3 weeks after application
Procedure, shortened: as §3

[12] = test system: Veronica persica; assay: Test Example 5: herbicidal effect by foliage application, plastic box (symbol R); details: 320 g/ha, 3 weeks after application
Procedure, shortened: as §3

[13] = test system: soybean; assay: Test Example 5: effect on crop by foliage application, plastic box (symbol d); details: 320 g/ha, 3 weeks after application
Procedure, shortened: (§4)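 Crop seed is sown alongside grass and broadleaf weed species in spots in sterilized diluvial soil, then covered to a depth of about 1.5 cm. Plants grow in a greenhouse kept at 25° C. to 30° C.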

[14] = test system: wheat; assay: Test Example 5: effect on crop by foliage application, plastic box (symbol e); details: 320 g/ha, 3 weeks after application
Procedure, shortened: as §4

[15] = test system: beet; assay: Test Example 5: effect on crop by foliage application, plastic box (symbol f); details: 320 g/ha, 3 weeks after application
Procedure, shortened: as §4

[16] = application herbicide amount 320 g/ha

Compound	A (Echinochloa oryzacola Vasing.) herbicidal effect grade [1]	C (Monochoria vaginalis) herbicidal effect grade [2]	b (directly sowed rice plant) effect on crop grade [3]	H: Echinochloa crus-galli var. crus-galli, herbicidal effect grade [8]	K: Lolium multiflorum Lam., herbicidal effect grade [9]	N: Amaranthus retroflexus, herbicidal effect grade [10]	O: Chenopodium album, herbicidal effect grade [11]	R: Veronica persica, herbicidal effect grade [12]	d: soybean, effect on crop grade [13]	e: wheat, effect on crop grade [14]	f: beet, effect on crop grade [15]	Herbicidal effect grade, A: Echinochloa oryzacola Vasing. [1]	Herbicidal effect grade, C: Monochoria vaginalis [2]	effect on crop b (directly sowed rice plant), grade 0-5 [3]	F: Digitaria ciliaris, herbicidal effect grade ([4]; 320 g/ha)	d: soybean, effect grade on crop [5]	e: wheat, effect grade on crop [6]	g: rapeseed, effect grade on crop [7]	H: Echinochloa crus-galli var. crus-galli, herbicidal effect (criteria 0-5) [8]	K: Lolium multiflorum Lam., herbicidal effect (criteria 0-5) [9]	further results
CON=C(CC1CC(OC(=O)C(C)(C)C)=C(c2c(C)cc(C)cc2OC)C1=O)C1CC1 (mixture of isomers) [13-006]	5 (Herbicidal ratio of 90% or more (almost completely withered))	4 (Herbicidal ratio of 70% or higher and lower than 90%)	5 (Herbicidal ratio of 90% or more (almost completely withered))	5 (Herbicidal ratio of 90% or more (almost completely withered))	5 (Herbicidal ratio of 90% or more (almost completely withered))	3 (Herbicidal ratio of 40% or higher and lower than 70%)	2 (Herbicidal ratio of 20% or higher and lower than 40%)	2 (Herbicidal ratio of 20% or higher and lower than 40%)	2 (Herbicidal ratio of 20% or higher and lower than 40%)	5 (Herbicidal ratio of 90% or more (almost completely withered))	3 (Herbicidal ratio of 40% or higher and lower than 70%)	–	–	–	–	–	–	–	–	–	F: Digitaria ciliaris, herbicidal effect grade [4, 16]: 5 (Herbicidal ratio of 90% or more (almost completely withered)); d: soybean, effect on crop grade [5, 16]: 0 (Herbicidal ratio of 5% or lower (almost no effect)); e: wheat, effect on crop grade [6, 16]: 4 (Herbicidal ratio of 70% or higher and lower than 90%); g: rapeseed, effect on crop grade [7, 16]: 3 (Herbicidal ratio of 40% or higher and lower than 70%)
CCCCCCCCS(=O)(=O)OC1=C(c2c(C)cc(C)cc2C)C(=O)C(CC(C)=NOC)C1 (stereo not drawn) [1-107]	–	–	–	–	–	–	–	–	–	–	–	5 (Herbicidal ratio of 90% or more (almost completely withered))	1 (Herbicidal ratio of 5% or higher and lower than 20%)	5 (Herbicidal ratio of 90% or more (almost completely withered))	5 (Herbicidal ratio of 90% or more (almost completely withered))	0 (Herbicidal ratio of 5% or lower (almost no effect))	0 (Herbicidal ratio of 5% or lower (almost no effect))	2 (Herbicidal ratio of 20% or higher and lower than 40%)	5 (Herbicidal ratio of 90% or more (almost completely withered))	5 (Herbicidal ratio of 90% or more (almost completely withered))	N: Amaranthus retroflexus, herbicidal effect (criteria 0-5) [10]: 0 (Herbicidal ratio of 5% or lower (almost no effect)); O: Chenopodium album, herbicidal effect (criteria 0-5) [11]: 0 (Herbicidal ratio of 5% or lower (almost no effect)); R: Veronica persica, herbicidal effect (criteria 0-5) [12]: 0 (Herbicidal ratio of 5% or lower (almost no effect)); d: soybean, effect on crop (criteria 0-5) [13]: 3 (Herbicidal ratio of 40% or higher and lower than 70%); e: wheat, effect on crop (criteria 0-5) [14]: 2 (Herbicidal ratio of 20% or higher and lower than 40%); f: beet, effect on crop (criteria 0-5) [15]: 0 (Herbicidal ratio of 5% or lower (almost no effect))
CON=C(C)CC1CC(OC(=O)c2cnoc2C2CC2)=C(c2c(C)cc(C)cc2C)C1=O (stereo not drawn) [1-103]	–	–	–	–	–	–	–	–	–	–	–	5 (Herbicidal ratio of 90% or more (almost completely withered))	1 (Herbicidal ratio of 5% or higher and lower than 20%)	5 (Herbicidal ratio of 90% or more (almost completely withered))	5 (Herbicidal ratio of 90% or more (almost completely withered))	1 (Herbicidal ratio of 5% or higher and lower than 20%)	4 (Herbicidal ratio of 70% or higher and lower than 90%)	3 (Herbicidal ratio of 40% or higher and lower than 70%)	5 (Herbicidal ratio of 90% or more (almost completely withered))	5 (Herbicidal ratio of 90% or more (almost completely withered))	N: Amaranthus retroflexus, herbicidal effect (criteria 0-5) [10]: 0 (Herbicidal ratio of 5% or lower (almost no effect)); O: Chenopodium album, herbicidal effect (criteria 0-5) [11]: 2 (Herbicidal ratio of 20% or higher and lower than 40%); R: Veronica persica, herbicidal effect (criteria 0-5) [12]: 3 (Herbicidal ratio of 40% or higher and lower than 70%); d: soybean, effect on crop (criteria 0-5) [13]: 3 (Herbicidal ratio of 40% or higher and lower than 70%); e: wheat, effect on crop (criteria 0-5) [14]: 5 (Herbicidal ratio of 90% or more (almost completely withered)); f: beet, effect on crop (criteria 0-5) [15]: 0 (Herbicidal ratio of 5% or lower (almost no effect))
CC#Cc1cc(C)c(C2=C(OC(=O)COc3ccccc3)CC(CC(C)=NOCC(F)(F)F)C2=O)c(C)c1 (stereo not drawn) [9-013]	5 (Herbicidal ratio of 90% or more (almost completely withered))	1 (Herbicidal ratio of 5% or higher and lower than 20%)	5 (Herbicidal ratio of 90% or more (almost completely withered))	5 (Herbicidal ratio of 90% or more (almost completely withered))	5 (Herbicidal ratio of 90% or more (almost completely withered))	0 (Herbicidal ratio of 5% or lower (almost no effect))	3 (Herbicidal ratio of 40% or higher and lower than 70%)	4 (Herbicidal ratio of 70% or higher and lower than 90%)	0 (Herbicidal ratio of 5% or lower (almost no effect))	4 (Herbicidal ratio of 70% or higher and lower than 90%)	4 (Herbicidal ratio of 70% or higher and lower than 90%)	–	–	–	–	–	–	–	–	–	Herbicidal effect grade, F: Digitaria ciliaris [4, 16]: 5 (Herbicidal ratio of 90% or more (almost completely withered)); Effect on crop grade, d: soybean [5, 16]: 0 (Herbicidal ratio of 5% or lower (almost no effect)); Effect on crop grade, e: wheat [6, 16]: 4 (Herbicidal ratio of 70% or higher and lower than 90%); Effect on crop grade, g: rapeseed [7, 16]: 4 (Herbicidal ratio of 70% or higher and lower than 90%)
